Test results reported in patent publication US8134015B2, “Compound inhibiting in vivo phosphorous transport and medicine containing the same” (Kyowa Hakko Kirin Co., Ltd., priority 2003, dated 2012).

Target: T1, rat NaPi-2b (Rattus norvegicus, UniProt Q9JJ09)
T1 construct: expressed in transfected cells; host or cells: Xenopus oocytes injected with cRNA
T1 sequence (Q9JJ09 1-695): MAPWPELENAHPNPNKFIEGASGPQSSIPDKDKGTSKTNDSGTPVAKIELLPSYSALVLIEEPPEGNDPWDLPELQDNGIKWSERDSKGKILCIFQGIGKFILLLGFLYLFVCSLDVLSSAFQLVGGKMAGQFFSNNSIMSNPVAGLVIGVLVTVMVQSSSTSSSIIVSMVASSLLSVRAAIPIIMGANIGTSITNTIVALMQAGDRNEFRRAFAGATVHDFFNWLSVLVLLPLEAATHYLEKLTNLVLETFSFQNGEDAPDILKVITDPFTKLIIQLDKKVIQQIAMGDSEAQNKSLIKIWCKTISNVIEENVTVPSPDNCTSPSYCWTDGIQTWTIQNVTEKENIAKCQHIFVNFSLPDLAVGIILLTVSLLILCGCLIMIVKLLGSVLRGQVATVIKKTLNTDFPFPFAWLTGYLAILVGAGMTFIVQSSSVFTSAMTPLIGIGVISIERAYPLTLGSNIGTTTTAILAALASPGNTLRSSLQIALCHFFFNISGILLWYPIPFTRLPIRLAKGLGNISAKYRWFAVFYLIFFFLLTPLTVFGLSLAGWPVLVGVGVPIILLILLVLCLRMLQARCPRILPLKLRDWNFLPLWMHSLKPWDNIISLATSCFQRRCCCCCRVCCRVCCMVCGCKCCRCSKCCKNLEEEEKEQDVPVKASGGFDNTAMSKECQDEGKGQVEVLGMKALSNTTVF
Assay: Sodium-dependent phosphate uptake of Xenopus oocytes which expressed NaPi-2b (32P)
Type: cell-based
Settings: for IC50: Xenopus oocytes expressing rat NaPi-2b, 32P radioactive phosphorus, read-out: IC50 (phosphate uptake inhibitory activity); for inhibition at 300 µM: phosphate uptake, oocytes expressing rat NaPi-2b, determined from inhibition curve
Description: Pharmacological Test Example 1
Experiment of Sodium-Dependent Phosphate Uptake of Xenopus oocytes which Expressed NaPi-2b
Degenerate primers were prepared from sequences of mouse NaPi-2b disclosed in Hilfiker H. et al., Pro Natl Acad Sci USA, 95 (24): 14564-14569, […] and sequences of human and rat NaPi-2a disclosed in Magagnin S. et al., Proc Natl Aca Sci USA, 90 (13): 5979-5983, 1993. RNA was extracted from the rat small intestine using ISOGEN; manufactured by NIPPON GENE CO., LTD (Japan). 400 bp gene fragments were obtained by PCR using, as a template, a cDNA library prepared with a cDNA synthesis kit (manufactured by STRATAGENE (US)). Thereafter, the above rat small intestine cDNA library was screened using the gene fragment as a probe, and the whole gene sequence of rat NaPi-2b was cloned. cRNA was synthesized from the cloned rat NaPi-2b cDNA with a cRNA synthesis kit (manufactured by Ambion (US)). The synthesized cRNA was injected into Xenopus oocytes (obtained from COPACETIC (Japan)) with a liquid microinjector (manufactured by Drummond (US)) and was cultured for 2 days to express rat NaPi-2b. Thereafter, for a group of derivatives, phosphate uptake inhibitory activity were measured using the Xenopus oocytes with ^32P radioactive phosphorus (manufactured by Daiichi Kagaku Inc. (Japan)). […] The inhibitory activity for 300 μM and 100 μM was determined from the same inhibition curve and expressed in percentage inhibition (%) in Table 5.

Row | SMILES | IC50 | inhibition at 300 µM
1 | O=C(Nc1ccc(Br)cc1C(=O)N/N=C/c1cccc(F)c1)c1ccncc1 [Compound 166, N-[4-Bromo-2-(3-fluoro-benzylidene-hydrazinocarbonyl)-phenyl]-isonicotinamide] | 27.9 µM | –
2 | COc1ccc(C(=O)Nc2ccc(Cl)cc2C(=O)N/N=C/c2cccc(C)n2)cc1OC [Compound 246, N-[4-Chloro-2-(6-methyl-pyridin-2-ylmethylene-hydrazinocarbonyl)-phenyl]-3,4-dimethoxy-benzamide] | – | 32.6%
3 | O=C(Nc1ccc(Br)cc1C(=O)N/N=C/c1ccc(F)cc1)c1ccc(F)cc1 [Compound 106, N-[4-Bromo-2-(4-fluoro-benzylidene-hydrazinocarbonyl)-phenyl]-4-fluoro-benzamide] | 5.11 µM | –
4 | Cc1ccc(/C=N/NC(=O)c2cc(Br)ccc2NC(=O)c2ccc(CN3CCN(CC(=O)N4CCOCC4)CC3)cc2)cc1 [Compound 728, N-[4-Bromo-2-(4-methyl-benzylidene-hydrazinocarbonyl)-phenyl]-4-[4-(2-morpholin-4-yl-2-oxo-ethyl)-piperazin-1-ylmethyl]-benzamide] | 20.3 µM | –
5 | COc1ccc(C(=O)Nc2ccccc2C(=O)N/N=C/c2cccc([N+](=O)[O-])c2)cc1OC [Compound 103, 3,4-Dimethoxy-N-[2-(3-nitro-benzylidene-hydrazinocarbonyl)-phenyl]-benzamide] | 5.73 µM | –
6 | Cc1ccc(/C=N/NC(=O)c2cc(Br)ccc2NC(=O)c2ccc(CN(CC(C)O)CC(C)O)cc2)cc1C (stereo not drawn) [Compound 303, 4-{[Bis-(2-hydroxy-propyl)-amino]-methyl}-N-[4-bromo-2-(3,4-dimethyl-benzylidene-hydrazinocarbonyl)-phenyl]-benzamide] | 1.13 µM | –
7 | O=C(Nc1ccc(I)cc1C(=O)N/N=C/c1cccc(F)c1)c1cccc(CN2CCC(N3CCCCC3)CC2)c1 [Compound 482, 3-[1,4′]Bipiperidinyl-1′-ylmethyl-N-[2-(3-fluoro-benzylidene-hydrazinocarbonyl)-4-iodo-phenyl]-benzamide] | < 3 µM | –
8 | Cc1ccc(/C=N/NC(=O)c2cc(Br)ccc2NC(=O)c2ccc(CN3CCN(c4ccccn4)CC3)cc2)cc1 [Compound 773, N-[4-Bromo-2-(4-methyl-benzylidene-hydrazinocarbonyl)-phenyl]-4-(4-pyridin-2-yl-piperazin-1-ylmethyl)-benzamide] | – | 53.9%
9 | O=C(Nc1ccc(I)cc1C(=O)N/N=C/c1ccc(O)cc1)c1cccc(CN2CCC(N3CCCCC3)CC2)c1 [Compound 491, 3-[1,4′]Bipiperidinyl-1′-ylmethyl-N-[2-(4-hydroxy-benzylidene-hydrazinocarbonyl)-4-iodo-phenyl]-benzamide] | < 3 µM | –
10 | COc1ccc(/C=N/NC(=O)c2scc(C)c2NC(=O)c2cccc(CN3CCC(O)CC3)c2)cc1 [Compound 543, 3-(4-Hydroxy-piperidin-1-ylmethyl)-N-[2-(4-methoxy-benzylidene-hydrazinocarbonyl)-4-methyl-thiophen-3-yl]-benzamide] | – | 30.2%

The remaining lines, values ahead:

Row | IC50 | inhibition at 300 µM | SMILES
11 | < 1 µM | – | CC1CCN(c2ccc(NC(=O)c3cccc(CSCCO)c3)c(C(=O)N/N=C/c3ccc(Cl)c(C(F)(F)F)c3)c2)CC1 [Compound 1070, N-[2-(4-Chloro-3-trifluoromethyl-benzylidene-hydrazinocarbonyl)-4-(4-methyl-piperidin-1-yl)-phenyl]-3-(2-hydroxy-ethylsulfanylmethyl)-benzamide]
12 | 1.31 µM | – | CCN(CC)CCN(C)Cc1ccc(C(=O)Nc2ccc(Br)cc2C(=O)N/N=C/c2cccc(F)c2)cc1 [Compound 288, N-[4-Bromo-2-(3-fluoro-benzylidene-hydrazinocarbonyl)-phenyl]-4-{[(2-diethylamino-ethyl)-methyl-amino]-methyl}-benzamide]
13 | < 3 µM | – | O=C(Nc1ccc(N2CCCCC2)cc1C(=O)N/N=C/c1ccc(F)cc1)c1cccc(CN2CCC(O)CC2)c1 [Compound 872, N-[2-(4-Fluoro-benzylidene-hydrazinocarbonyl)-4-piperidin-1-yl-phenyl]-3-(4-hydroxy-piperidin-1-ylmethyl)-benzamide]
14 | 0.66 µM | – | O=C(Nc1ccc(N2CCCCC2)cc1C(=O)N/N=C/c1cccc(F)c1)c1cccc(CN2CCC(O)CC2)c1 [Compound 873, N-[2-(3-Fluoro-benzylidene-hydrazinocarbonyl)-4-piperidin-1-yl-phenyl]-3-(4-hydroxy-piperidin-1-ylmethyl)-benzamide]
15 | – | 81% | CCN(CC)CCN(C)Cc1cccc(C(=O)Nc2c(C)csc2C(=O)N/N=C/c2ccc(C)c(C)c2)c1 [Compound 711, 3-{[(2-Diethylamino-ethyl)-methyl-amino]-methyl}-N-[2-(3,4-dimethyl-benzylidene-hydrazinocarbonyl)-4-methyl-thiophen-3-yl]-benzamide]
16 | 0.24 µM | – | O=C(Nc1ccc(Cl)cc1C(=O)N/N=C/c1ccc(Cl)c(C(F)(F)F)c1)c1cccc(CSCC(O)CO)c1 (stereo not drawn) [Compound 1010, N-[4-Chloro-2-(4-chloro-3-trifluoromethyl-benzylidene-hydrazinocarbonyl)-phenyl]-3-(2,3-dihydroxy-propylsulfanylmethyl)-benzamide]
17 | < 3 µM | – | CCN(CC)CCN(C)Cc1cccc(C(=O)Nc2sc3c(c2C(=O)N/N=C/c2ccc(OC(F)(F)F)cc2)CCCC3)c1 [Compound 1001, 3-{[(2-Diethylamino-ethyl)-methyl-amino]-methyl}-N-[3-(4-trifluoromethoxy-benzylidene-hydrazinocarbonyl)-4,5,6,7-tetrahydro-benzo[b]thiophen-2-yl]-benzamide]
18 | 58.2 µM | – | CCN(CC)CCN(C)Cc1cccc(C(=O)Nc2ccc(Cl)cc2C(=O)N/N=C/c2ccc(OCCCN(C)C)cc2)c1 [Compound 999, N-{4-Chloro-2-[4-(3-dimethylamino-propoxy)-benzylidene-hydrazinocarbonyl]-phenyl}-3-{[(2-diethylamino-ethyl)-methyl-amino]-methyl}-benzamide]
19 | 3.7 µM | – | CCN(CC)CCN(C)Cc1cccc(C(=O)Nc2ccc(OCCOCCOC)cc2C(=O)N/N=C/c2ccc(C)c(C)c2)c1 [Compound 1035, 3-{[(2-Diethylamino-ethyl)-methyl-amino]-methyl}-N-{2-(3,4-dimethyl-benzylidene-hydrazinocarbonyl)-4-[2-(2-methoxy-ethoxy)-ethoxy]-phenyl}-benzamide]
20 | 30.2 µM | – | CC(O)CN(Cc1cccc(C(=O)Nc2ccc(N3CCCC3=O)cc2C(=O)N/N=C/c2ccc(F)cc2)c1)CC(C)O (stereo not drawn) [Compound 947, 3-{[Bis-(2-hydroxy-propyl)-amino]-methyl}-N-[2-(4-fluoro-benzylidene-hydrazinocarbonyl)-4-(2-oxo-pyrrolidin-1-yl)-phenyl]-benzamide]
21 | 40.2 µM | – | CCN(CC)CCN(C)Cc1cccc(C(=O)Nc2ccc(N3CCN(CCO)CC3)cc2C(=O)N/N=C/c2ccc(Cl)c(C(F)(F)F)c2)c1 [Compound 924, N-{2-(4-Chloro-3-trifluoromethyl-benzylidene-hydrazinocarbonyl)-4-[4-(2-hydroxy-ethyl)-piperazin-1-yl]-phenyl}-3-{[(2-diethylamino-ethyl)-methyl-amino]-methyl}-benzamide]
22 | 1.54 µM | – | CCN(CC)CCN(C)Cc1cccc(C(=O)Nc2ccc(N3CCOCC3)cc2C(=O)N/N=C/c2ccc(C)c(C)c2)c1 [Compound 1074, 3-{[(2-Diethylamino-ethyl)-methyl-amino]-methyl}-N-[2-(3,4-dimethyl-benzylidene-hydrazinocarbonyl)-4-morpholin-4-yl-phenyl]-benzamide]
23 | < 3 µM | – | CCN(CCO)Cc1cccc(C(=O)Nc2ccc(Cl)cc2C(=O)N/N=C/c2ccc(Cl)c(C(F)(F)F)c2)c1 [Compound 427, N-[4-Chloro-2-(4-chloro-3-trifluoromethyl-benzylidene-hydrazinocarbonyl)-phenyl]-3-{[ethyl-(2-hydroxy-ethyl)-amino]-methyl}-benzamide]
24 | 0.46 µM | – | O=C(Nc1ccc(Br)cc1C(=O)N/N=C/c1ccc(Cl)c(C(F)(F)F)c1)c1ccco1 [Compound 156, Furan-2-carboxylic acid [4-bromo-2-(4-chloro-3-trifluoromethyl-benzylidene-hydrazinocarbonyl)-phenyl]-amide]
